Test results as given in paper PMC11104609, “Discovery of allosteric regulators with clinical potential to stabilize alpha-L-iduronidase in mucopolysaccharidosis type I” (PLOS ONE, 2024).

Key:
[1] = Plasma pharmacokinetics of GT-01803 in mice; format: in vivo, male C57BL/6 mice; settings: male, C57BL/6, mouse
Protocol: The in vivo pharmacokinetic (PK) profile of GT-01803 in plasma was assessed in male C57BL/6 mice after single intravenous (i.v.) and oral gavage administration (p.o.) of 2 mg/kg and 10 mg/Kg, respectively. The plasma PK evaluation was performed by Sai Life Sciences Limited (Pune, India) in accordance with guidelines of the Institutional Animal Ethics Committee (IAEC). Eighteen male mice were divided into Group 1 (i.v.: 2 mg/kg) or Group 2 (p.o.: 10 mg/kg). Animals in Group 1 and Group 2 were administered intravenously and orally with GT-01803 solution formulation in 5% N-methyl-2-pyrrolidone (NMP), 5% Solutol HS-15 and 90% saline solution at 2 and 10 mg/kg doses, respectively.
Blood samples were collected under light isoflurane anesthesia from retro-orbital plexus such that samples were obtained at 0.08, 0.25, 0.5, 1, 2, 3, 4, 6 and 8 hr. (i.v.) and Pre-dose, 0.25, 0.5, 1, 2, 3, 4, 6 and 8 hr (p.o.). At each time point, blood samples were collected from three mice. Immediately after collection, plasma was harvested by centrifugation and stored at -70 °C until analysis. All samples were processed by protein precipitation using acetonitrile and analyzed with an LC/MS/MS method suitable for the purpose (LLOQ = 1.00 ng/mL).
PK parameters were calculated using the non-compartmental analysis tool of Phoenix WinNonlin (Version 7.0). Maximum concentration (Cmax) and time to reach maximum concentration (Tmax) were the observed values. The areas under the concentration time curve (AUClast and AUCinf) […] were calculated by linear trapezoidal rule. The terminal elimination rate constant, ke, was determined by regression analysis of the linear terminal portion of the log plasma concentration-time curve. The terminal half-life (T1/2) was estimated as follows 0.693/ke; CLi.v. = Dose/AUCinf; Vss = MRT X CLi.v.; %F = [(Mean AUCp.o. × Dosei.v.) / (Mean AUCi.v. × Dosep.o.)] × 100.

IDUA [2] = molecular target: T1, IDUA (Homo sapiens, UniProt P35475); experiment: Differential scanning fluorimetry (DSF) thermal shift; format: binding; design: purchased R&D Systems
T1 sequence (P35475 28-653): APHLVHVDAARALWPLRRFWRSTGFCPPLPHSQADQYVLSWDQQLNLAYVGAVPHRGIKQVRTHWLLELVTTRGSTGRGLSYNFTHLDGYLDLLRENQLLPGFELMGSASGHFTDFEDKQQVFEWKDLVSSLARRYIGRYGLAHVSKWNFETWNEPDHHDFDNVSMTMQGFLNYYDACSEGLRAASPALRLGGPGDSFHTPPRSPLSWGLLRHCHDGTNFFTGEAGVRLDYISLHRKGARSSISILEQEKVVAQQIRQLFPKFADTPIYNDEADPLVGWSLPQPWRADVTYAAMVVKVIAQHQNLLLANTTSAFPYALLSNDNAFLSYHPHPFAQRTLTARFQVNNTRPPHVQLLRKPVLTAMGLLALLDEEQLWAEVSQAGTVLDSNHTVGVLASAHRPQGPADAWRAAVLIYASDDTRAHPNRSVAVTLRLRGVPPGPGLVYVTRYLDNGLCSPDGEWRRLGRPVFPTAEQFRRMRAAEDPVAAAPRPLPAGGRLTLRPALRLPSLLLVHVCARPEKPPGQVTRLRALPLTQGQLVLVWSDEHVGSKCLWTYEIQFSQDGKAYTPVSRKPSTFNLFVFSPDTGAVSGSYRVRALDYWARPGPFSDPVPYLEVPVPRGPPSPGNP
Protocol: The capacity of the compounds to stabilise IDUA was assessed by DSF. The thermal denaturation of purified human native enzyme was monitored in the presence of the extrinsic fluorescent probe SYPRO® Orange (Thermo Fisher Scientific, Waltham, MA, USA), which binds to hydrophobic parts of proteins that become exposed as the protein unfolds. […] Reactions containing 12.5 μL of 1.5 μM rhIDUA protein (purchased from R&D Systems) in 100 mM Hepes, 20 mM MgCl2, pH 7, to a final protein concentration of 0.75 μM with SYPRO Orange 10X, and 12.5 μL of the different compound solutions dissolved in 100% DMSO and diluted into the protein buffer to achieve final concentrations of 1% DMSO. The intensity of SYPRO Orange fluorescence after a systematic increase in temperature was monitored in the Roche LightCycler® 480 II device (Roche Diagnostics). The significance of the melting temperature (Tm) shifts was evaluated based on two criteria: absolute ΔTm shift > 0.5 °C (instrumental criterion) and absolute ΔTm standard deviation ≤ 0.2 (statistical criterion). The thermal shift dose response was performed at various increasing concentrations (from 0.04 to 90 μM) of compound #18 (GT-01803) with rhIDUA (obtained from the Institute of Biotechnology and Biomedicine at the Autonomous University of Barcelona (UAB), Bellaterra, Spain).

IDUA [3] = molecular target: T1, IDUA; experiment: Denaturation prevention (isothermal denaturation) assay with SYPRO Orange; format: binding; design: purchased R&D Systems; settings: 30 μM compound, pH 7.0, 37 °C
Protocol: The capacity of the compounds to stabilize IDUA in neutral pH buffer was assessed using the denaturation prevention assay. Briefly, rhIDUA (obtained from the Institute of Biotechnology and Biomedicine in the UAB, Bellaterra, Spain) was combined to a final concentration of 1 μM with 5X SYPRO Orange and 30 μM of the corresponding compound in a final reaction volume of 25 μL in 100 mM Hepes, 20 mM MgCl2, pH 7 buffer, or 25 mM NaAc, 150 mM NaCl, pH 5.2. Reactions were incubated at 37 °C, and SYPRO Orange fluorescence intensity was monitored at the indicated time points using Glomax® Discover microplate reader (Promega, Madison, WI, USA). Two independent experiments in triplicate at one concentration (30μM) of compound #18 (GT-01803) were performed for denaturation prevention assays.

AUC(0-inf) ([1]; iv, 2 mg/kg): 13600 ng·h/mL
AUC(0-t) ([1]; iv, 2 mg/kg): 13300 ng·h/mL
clearance ([1]; iv, 2 mg/kg): 2.45 mL/min/kg
half-life ([1]; iv, 2 mg/kg): 3.54 h
C0 ([1]; iv, 2 mg/kg, read-out: C0 (back extrapolated conc.)): 33500 ng/mL
Vd ([1]; iv, 2 mg/kg, read-out: Vss): 0.13 L/kg
bioavailability ([1]; oral, p.o. 10 mg/kg vs i.v. 2 mg/kg, AUClast considered, read-out: %F (oral bioavailability)): 50%
AUC(0-inf) ([1]; po, 10 mg/kg): 33200 ng·h/mL
AUC(0-t) ([1]; po, 10 mg/kg): 33000 ng·h/mL
Cmax ([1]; po, 10 mg/kg): 33900 ng/mL
Tmax ([1]; po, 10 mg/kg): 0.25 h
rhIDUA stabilization by DSF (ΔTm) (IDUA [2]; 30 μM, compounds #1 to #21): highest rhIDUA stabilization
increase of rhIDUA melting temperature (IDUA [2]; dose response 0.04 to 90 μM, neutral pH): 4 ºC
pH-induced denaturation of rhIDUA (IDUA [3]): slowed down
Compound: CCN(CC(=O)Nc1c(Cl)cccc1Cl)Cc1nc2ccsc2c(=O)[nH]1 [GT-01803]
